The results in this text go back to PubChem BioAssay (NCI).

Common to all, as to test: NCI-60 cell line screen, 48 h
Test [1] has as its system HOP-92 NSCLC.
For test [2], the system named is MALME-3M melanoma.
The test system of test [3] is NCI-H522 lung.
Test [4] relates to PC-3 prostate.
In test [5] the test system is SF-268 CNS.
The test system of test [6] is SK-MEL-2 melanoma.
In test [7] the test system is SK-MEL-5 melanoma.
Test [8] has as its system SNB-19 CNS.
Test [9] has as its system SR leukemia.
For test [10], the system named is TK-10 renal.

Structures are written as SMILES.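 Exposure lasted 48 hours, with cells grown in 96-well plates and compounds tested at five concentrations. The concentration for 50% growth inhibition is given as GI50. TGI: total growth inhibition.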 Some results are limits rather than exact numbers.

On to `CCN1C(=O)CCCc2c1ccc(Nc1ncc(Cl)c(NC3[C@@H](C(N)=O)[C@@H]4C=C[C@H]3C4)n1)c2OC` (stereo not given in full), for which the GI50 in test [1] is 0.276 µM; in [2], 0.998 µM; in test [3], 1.16 µM; in test [4], 1.49 µM; in [5], 2.01 µM; in test [6], 1.44 µM. Also, the GI50 in test [7] was 1.45 µM; in [8], 1.94 µM; in test [9], 0.0556 µM; in [10], 0.897 µM. The TGI is 2.26 µM in [1]; 3.4 µM in test [2]; 6.13 µM in test [3]; 18 µM in [4]; 14.3 µM in [5]; 3.79 µM in test [6]. The TGI in [7] is 4.82 µM; in test [8], 14 µM; in test [9], 19.7 µM; in test [10], 4.38 µM.

For the compound `N#Cc1c(Br)n(C2OC(CO)C(O)C2O)c2ncnc(N)c12` (stereo not given), the GI50 is 0.738 µM in test [1]; 2.53 µM in test [2]; 4.62 µM in test [3]; 0.811 µM in [4]; 1.5 µM in test [5]; 5.3 µM in test [6]. Further, the GI50 in [7] is 2.68 µM; in [8] it was 4.35 µM; in [9], 0.827 µM; in [10] it was 4.02 µM. Besides, the TGI in [1] was 4.02 µM; in test [2], 20 µM; in [3] it was 14.8 µM; in [4] it was 18.6 µM; in test [5] it was 18.9 µM; in test [6] it was 14.1 µM. Further, the TGI in test [7] was 7 µM; in test [8], > 75.9 µM; in test [9], 4.98 µM; in test [10] it was 42 µM.

In the case of `O=C1C2=C(c3ccccc31)C(c1ccccc1)N1C(=O)CSC1=N2` (stereo not given), the TGI in test [1] was > 100 µM; in [2] it was > 100 µM; in test [3], > 79.8 µM; in [4], > 100 µM; in test [5], > 100 µM; in [6], > 100 µM. Also, the TGI in test [7], in test [8], in test [9] and in test [10] was > 100 µM in each case.

For the compound `COc1ccc2c(c1)CC[C@@H]1[C@@H]2CC[C@]2(C)[C@@H](NC(=O)/C=C/c3ccc(O)c(O)c3)CC[C@@H]12`, the GI50 is 2.49 µM in test [1]; 11.2 µM in [2]; 1.68 µM in [3]; 2.17 µM in [4]; 2.66 µM in [5]; 2.77 µM in test [6]. Further, the GI50 in test [7] is 3.86 µM; in test [8] it was 15.7 µM; in [9] it was 1.51 µM; in test [10], 1.47 µM. Also, the TGI in test [1] is 11.6 µM; in [2], 25.9 µM; in [3], 5.73 µM; in test [4] it was 12.5 µM; in test [5], 11 µM; in test [6], 11.7 µM. Also, the TGI in [7] was 16.4 µM; in test [8], 48.6 µM; in test [9], 4.21 µM; in [10], 6.6 µM.

In the case of `Clc1ccc(-c2nnc(-c3cccc4ccccc34)o2)cc1Cl`, the TGI in [1], in test [2], in [3], in test [4], in test [5] and in [6] was > 100 µM in each case. For the same compound, the TGI in [7], in [8], in test [9] and in test [10] was > 100 µM throughout.

As to `O=C(O)C1CCCCC1c1c2ccc(=O)c(O)c-2oc2c(O)c(O)ccc12` (stereo not given), the TGI in [1] is > 100 µM; in test [2], > 100 µM; in test [3], 67 µM; in [4], > 100 µM; in test [5], > 100 µM; in test [6], > 100 µM. Moreover, the TGI in [7], in test [8], in test [9] and in test [10] was > 100 µM throughout.

Turning to `COc1cc(OC)c2nccc(NCCCN(C)C)c2c1[N+](=O)[O-]`, the TGI in test [1], in [2], in [3], in test [4], in test [5] and in [6] was > 100 µM throughout. The TGI in test [7], in [8], in test [9] and in test [10] was > 100 µM in each case.

As for `Brc1ccc2[nH]cc(-c3nc(-c4c[nH]c5ncccc45)cs3)c2c1`, the GI50 in test [1] was 1.98 µM; in test [2], 4.46 µM; in test [3], 3.53 µM; in test [4], 2.99 µM; in test [5] it was 5.47 µM; in [6], 7.11 µM. For the same compound, the GI50 is 2.97 µM in test [7], 5.29 µM in test [8], 3.25 µM in test [9] and 5.28 µM in test [10]. Further, the TGI is 6.89 µM in [1]; 18.8 µM in test [2]; 10.8 µM in test [3]; 13.5 µM in [4]; 19.8 µM in [5]; 20.3 µM in [6]. For the same compound, the TGI in test [7] came to 12.9 µM; in test [8], 19.8 µM; in [9], 14.3 µM; in test [10] it was 17.8 µM.

On to `COc1cccc(-c2nn(-c3ccccc3)cc2-c2ccnc(NCCNC(=O)Nc3cccc(C(F)(F)F)c3)c2)c1`, for which the GI50 in [1] is 1.46 µM; in test [2] it was 1.76 µM; in test [3] it was 1.24 µM; in test [4], 2.02 µM; in [5], 2 µM; in test [6] it was 1.69 µM. Besides, the GI50 is 1.73 µM in test [7], 3.12 µM in test [8], 1.91 µM in [9] and 2.74 µM in [10]. Besides, the TGI stood at 3.28 µM in test [1]; 3.9 µM in [2]; 3.19 µM in test [3]; 5.24 µM in test [4]; 4.49 µM in test [5]; 3.6 µM in test [6]. The TGI came out at 3.15 µM in test [7], 11.9 µM in test [8], 4.97 µM in [9] and 11.9 µM in [10].

Take `CN(Cc1cccc(F)c1)c1ccc(CO)c(Cl)c1`: the GI50 in test [1] is 3.37 µM; in test [2] it was 27.5 µM; in test [3] it was 24.1 µM; in test [4], 23.7 µM; in test [5], 34.4 µM; in [6], 8.39 µM. Further, the GI50 in test [7] was 11 µM; in [8], 32.8 µM; in test [9] it was 24.4 µM; in [10], 0.186 µM. In addition, the TGI is 28.1 µM in test [1]; > 88.9 µM in test [2]; 75.5 µM in [3]; 98.8 µM in test [4]; > 100 µM in [5]; 33.7 µM in test [6]. The TGI is 23.3 µM in test [7], > 100 µM in test [8], > 88.6 µM in test [9] and 0.851 µM in test [10].

As to `Oc1ccc(-c2nc3ccc4[nH]ncc4c3c3c2CCCC3)c(F)c1`, the GI50 in test [1] is 2.07 µM; in test [2], 3.36 µM; in [3], 1.25 µM; in [4] it was 2.75 µM; in [5], 3.27 µM; in [6], 1.01 µM. In addition, the GI50 in [7] was 2.55 µM; in test [8], 3.59 µM; in [9] it was 0.464 µM; in [10], 2 µM. Also, the TGI in test [1] was 9.8 µM; in test [2], 12.1 µM; in test [3], 4.72 µM; in test [4], 14.8 µM; in [5], 14.7 µM; in test [6], 2.93 µM. Moreover, the TGI in test [7] stood at 9.26 µM; in test [8], 14.2 µM; in test [9], 7.46 µM; in test [10], 9.53 µM.

Turning to `CC(C)N1CCN(Cc2ccc3c(NNC(=O)c4ccccc4)nc4cc(F)ccc4n23)CC1`, the GI50 was 0.678 µM in [1]; 0.575 µM in test [2]; 0.532 µM in test [3]; 0.402 µM in [4]; 0.355 µM in test [5]; 2.78 µM in test [6]. For the same compound, the GI50 in test [7] is 0.921 µM; in test [8], 0.537 µM; in test [9] it was 0.185 µM; in test [10] it was 0.216 µM. In addition, the TGI was 15.3 µM in [1]; 2.4 µM in [2]; 5.05 µM in test [3]; 12.7 µM in [4]; 12.7 µM in test [5]; 20.8 µM in test [6]. Further, the TGI in [7] was 3.11 µM; in test [8] it was 8.07 µM; in test [9], 6.83 µM; in test [10], 23.9 µM.
